Data as given in paper PMC6437697 (Journal of Medicinal Chemistry, 2019).

Columns and labels:
Assay in all cases: KINOMEscan
Type in all cases: binding
Conditions in all cases: read-out: % control activity remaining
FLT4 = molecular target: T1, FLT4 (Homo sapiens, UniProt P35916)
T1 construct: purchased Eurofins DiscoverX KINOMEscan

p38-delta = molecular target: T2, p38-delta (Homo sapiens, UniProt O15264)
T2 construct: purchased Eurofins DiscoverX KINOMEscan
T2 sequence (O15264 1-365): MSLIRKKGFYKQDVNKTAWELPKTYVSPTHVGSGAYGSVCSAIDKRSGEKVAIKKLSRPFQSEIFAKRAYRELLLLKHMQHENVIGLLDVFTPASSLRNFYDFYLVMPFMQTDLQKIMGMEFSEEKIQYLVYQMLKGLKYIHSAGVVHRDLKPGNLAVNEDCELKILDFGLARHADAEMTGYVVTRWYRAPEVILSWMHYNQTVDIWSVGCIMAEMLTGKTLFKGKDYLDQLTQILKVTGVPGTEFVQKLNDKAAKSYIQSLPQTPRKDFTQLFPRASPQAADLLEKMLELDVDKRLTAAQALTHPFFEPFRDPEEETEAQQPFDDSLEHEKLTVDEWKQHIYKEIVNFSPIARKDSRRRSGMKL

IKK-epsilon = molecular target: T3, IKK-epsilon (Homo sapiens, UniProt Q14164)
T3 construct: purchased Eurofins DiscoverX KINOMEscan
T3 sequence (Q14164 1-716): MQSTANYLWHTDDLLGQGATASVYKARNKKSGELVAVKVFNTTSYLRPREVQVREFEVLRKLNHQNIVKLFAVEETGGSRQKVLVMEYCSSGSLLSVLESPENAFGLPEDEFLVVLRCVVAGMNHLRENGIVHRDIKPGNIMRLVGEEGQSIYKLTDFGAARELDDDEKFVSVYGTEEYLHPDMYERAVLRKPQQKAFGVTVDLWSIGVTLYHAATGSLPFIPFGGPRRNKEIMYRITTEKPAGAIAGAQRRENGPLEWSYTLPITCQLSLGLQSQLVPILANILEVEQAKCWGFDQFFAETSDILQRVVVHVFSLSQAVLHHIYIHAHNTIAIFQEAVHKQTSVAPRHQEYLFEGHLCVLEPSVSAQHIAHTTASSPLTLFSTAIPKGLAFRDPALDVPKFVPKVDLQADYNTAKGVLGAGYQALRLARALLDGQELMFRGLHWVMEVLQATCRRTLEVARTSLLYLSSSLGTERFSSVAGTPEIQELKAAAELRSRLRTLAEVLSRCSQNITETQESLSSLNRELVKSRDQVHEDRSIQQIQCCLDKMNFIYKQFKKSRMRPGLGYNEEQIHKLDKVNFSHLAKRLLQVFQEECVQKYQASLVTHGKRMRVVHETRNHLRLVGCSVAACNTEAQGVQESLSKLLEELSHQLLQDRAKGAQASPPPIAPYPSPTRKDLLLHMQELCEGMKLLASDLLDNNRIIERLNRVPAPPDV

CDK5 = molecular target: T4, CDK5 (Homo sapiens, UniProt Q00535)
T4 construct: purchased Eurofins DiscoverX KINOMEscan
T4 sequence (Q00535 whole entry): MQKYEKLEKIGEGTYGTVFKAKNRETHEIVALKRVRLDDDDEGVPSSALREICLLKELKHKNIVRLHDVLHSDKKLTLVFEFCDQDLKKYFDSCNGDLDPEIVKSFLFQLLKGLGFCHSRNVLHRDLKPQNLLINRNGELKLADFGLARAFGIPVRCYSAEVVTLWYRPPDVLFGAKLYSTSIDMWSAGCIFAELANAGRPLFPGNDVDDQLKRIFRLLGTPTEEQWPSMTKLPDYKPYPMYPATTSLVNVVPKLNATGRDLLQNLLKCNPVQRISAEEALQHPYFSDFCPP

MET(M1250T) = molecular target: T5, MET(M1250T) (Homo sapiens, UniProt P08581, M1250T)
T5 construct: purchased Eurofins DiscoverX KINOMEscan
T5 sequence (P08581 25-1390 M1250T): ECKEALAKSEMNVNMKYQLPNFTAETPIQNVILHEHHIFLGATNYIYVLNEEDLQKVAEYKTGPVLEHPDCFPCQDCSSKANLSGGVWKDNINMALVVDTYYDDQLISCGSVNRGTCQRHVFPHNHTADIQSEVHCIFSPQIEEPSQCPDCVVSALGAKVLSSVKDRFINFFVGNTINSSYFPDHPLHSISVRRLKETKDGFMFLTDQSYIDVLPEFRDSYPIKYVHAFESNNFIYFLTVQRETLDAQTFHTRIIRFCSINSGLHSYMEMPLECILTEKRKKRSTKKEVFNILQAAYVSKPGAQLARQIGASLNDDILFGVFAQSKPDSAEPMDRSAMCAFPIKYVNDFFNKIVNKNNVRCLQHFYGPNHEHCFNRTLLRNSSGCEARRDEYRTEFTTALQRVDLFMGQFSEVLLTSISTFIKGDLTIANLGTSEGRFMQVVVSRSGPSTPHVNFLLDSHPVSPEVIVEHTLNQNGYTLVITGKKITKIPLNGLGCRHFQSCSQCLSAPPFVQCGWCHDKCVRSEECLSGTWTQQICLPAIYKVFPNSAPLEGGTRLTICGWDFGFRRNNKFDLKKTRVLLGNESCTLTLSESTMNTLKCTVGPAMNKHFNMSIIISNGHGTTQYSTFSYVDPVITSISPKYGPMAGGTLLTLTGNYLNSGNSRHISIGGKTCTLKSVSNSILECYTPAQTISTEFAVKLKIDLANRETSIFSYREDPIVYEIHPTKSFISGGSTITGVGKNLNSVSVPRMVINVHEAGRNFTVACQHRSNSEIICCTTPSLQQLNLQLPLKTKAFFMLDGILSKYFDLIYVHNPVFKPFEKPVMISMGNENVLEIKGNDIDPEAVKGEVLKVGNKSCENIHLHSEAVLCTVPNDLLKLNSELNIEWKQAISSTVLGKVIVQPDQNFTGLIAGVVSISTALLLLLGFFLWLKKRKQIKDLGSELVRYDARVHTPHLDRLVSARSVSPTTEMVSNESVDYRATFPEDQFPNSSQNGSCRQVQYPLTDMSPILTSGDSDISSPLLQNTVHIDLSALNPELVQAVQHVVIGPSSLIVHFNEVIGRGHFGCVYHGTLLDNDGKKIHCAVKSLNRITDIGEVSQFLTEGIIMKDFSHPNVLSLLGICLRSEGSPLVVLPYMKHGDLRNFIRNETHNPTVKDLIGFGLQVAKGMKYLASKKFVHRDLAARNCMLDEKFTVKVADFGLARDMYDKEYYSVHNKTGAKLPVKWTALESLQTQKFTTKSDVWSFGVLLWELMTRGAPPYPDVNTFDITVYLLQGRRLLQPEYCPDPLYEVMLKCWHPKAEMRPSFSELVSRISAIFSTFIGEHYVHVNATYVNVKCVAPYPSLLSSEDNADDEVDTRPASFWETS

CSNK1A1 = molecular target: T6, CSNK1A1 (Homo sapiens, UniProt P48729)
T6 construct: purchased Eurofins DiscoverX KINOMEscan
T6 sequence (P48729 whole entry): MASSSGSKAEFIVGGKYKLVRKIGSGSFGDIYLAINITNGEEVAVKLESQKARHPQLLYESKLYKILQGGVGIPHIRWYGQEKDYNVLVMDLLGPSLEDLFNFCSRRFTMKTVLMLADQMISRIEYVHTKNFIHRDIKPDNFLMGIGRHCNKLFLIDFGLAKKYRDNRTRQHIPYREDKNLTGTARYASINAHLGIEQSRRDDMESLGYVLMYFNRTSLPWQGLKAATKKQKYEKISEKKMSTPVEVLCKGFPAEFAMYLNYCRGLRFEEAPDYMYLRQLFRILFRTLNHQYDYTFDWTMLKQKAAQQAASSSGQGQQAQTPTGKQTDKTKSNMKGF

PIK3CA(H1047L) = molecular target: T7, PIK3CA(H1047L) (Homo sapiens, UniProt P42336, H1047L)
T7 construct: purchased Eurofins DiscoverX KINOMEscan
T7 sequence (P42336 whole entry H1047L): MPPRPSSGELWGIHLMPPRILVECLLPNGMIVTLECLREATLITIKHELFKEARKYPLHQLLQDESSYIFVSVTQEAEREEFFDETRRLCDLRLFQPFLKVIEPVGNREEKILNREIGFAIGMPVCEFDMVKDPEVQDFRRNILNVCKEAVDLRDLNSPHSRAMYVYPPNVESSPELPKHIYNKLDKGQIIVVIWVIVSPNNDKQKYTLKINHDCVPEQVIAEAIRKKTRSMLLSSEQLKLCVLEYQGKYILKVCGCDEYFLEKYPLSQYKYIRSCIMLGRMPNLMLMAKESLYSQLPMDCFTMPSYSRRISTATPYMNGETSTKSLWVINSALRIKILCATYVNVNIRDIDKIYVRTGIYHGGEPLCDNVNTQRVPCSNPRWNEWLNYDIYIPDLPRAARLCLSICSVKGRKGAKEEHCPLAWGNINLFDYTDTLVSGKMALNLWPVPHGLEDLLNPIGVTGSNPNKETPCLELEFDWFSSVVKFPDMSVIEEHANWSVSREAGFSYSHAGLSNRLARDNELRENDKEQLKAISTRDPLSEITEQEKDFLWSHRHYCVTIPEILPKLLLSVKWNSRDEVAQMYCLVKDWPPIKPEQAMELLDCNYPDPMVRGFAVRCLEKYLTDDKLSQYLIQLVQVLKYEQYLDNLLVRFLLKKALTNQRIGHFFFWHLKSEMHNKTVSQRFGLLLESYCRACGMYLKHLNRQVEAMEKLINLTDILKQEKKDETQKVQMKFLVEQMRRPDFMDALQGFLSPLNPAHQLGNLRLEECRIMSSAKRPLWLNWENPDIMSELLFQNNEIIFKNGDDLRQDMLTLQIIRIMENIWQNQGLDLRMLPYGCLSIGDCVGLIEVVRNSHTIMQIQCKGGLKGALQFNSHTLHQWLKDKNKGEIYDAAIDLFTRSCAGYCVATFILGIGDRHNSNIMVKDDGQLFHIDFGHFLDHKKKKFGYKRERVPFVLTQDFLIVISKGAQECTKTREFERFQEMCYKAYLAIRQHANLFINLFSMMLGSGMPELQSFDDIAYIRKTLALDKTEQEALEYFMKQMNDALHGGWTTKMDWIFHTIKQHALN

TNK1 = molecular target: T8, TNK1 (Homo sapiens, UniProt Q13470)
T8 construct: purchased Eurofins DiscoverX KINOMEscan
T8 sequence (Q13470 1-666): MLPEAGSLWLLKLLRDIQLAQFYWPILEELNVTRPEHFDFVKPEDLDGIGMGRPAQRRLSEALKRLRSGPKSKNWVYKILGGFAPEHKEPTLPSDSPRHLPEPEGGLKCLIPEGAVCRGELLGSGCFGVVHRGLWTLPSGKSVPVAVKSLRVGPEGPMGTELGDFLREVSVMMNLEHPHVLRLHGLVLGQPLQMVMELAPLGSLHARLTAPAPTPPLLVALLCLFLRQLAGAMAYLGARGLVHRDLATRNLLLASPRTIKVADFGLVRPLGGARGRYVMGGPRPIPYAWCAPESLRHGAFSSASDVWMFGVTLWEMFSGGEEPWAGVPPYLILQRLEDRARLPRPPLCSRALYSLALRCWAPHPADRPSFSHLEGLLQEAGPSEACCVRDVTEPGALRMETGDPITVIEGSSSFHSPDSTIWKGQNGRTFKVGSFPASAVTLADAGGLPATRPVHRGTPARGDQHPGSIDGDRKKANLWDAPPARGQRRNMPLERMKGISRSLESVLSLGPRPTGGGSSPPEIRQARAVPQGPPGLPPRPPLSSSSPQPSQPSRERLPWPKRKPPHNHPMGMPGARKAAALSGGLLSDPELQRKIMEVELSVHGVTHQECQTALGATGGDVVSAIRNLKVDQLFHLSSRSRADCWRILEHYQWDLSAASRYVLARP

NEK11 = molecular target: T9, NEK11 (Homo sapiens, UniProt Q8NG66)
T9 construct: purchased Eurofins DiscoverX KINOMEscan
T9 sequence (Q8NG66 1-645): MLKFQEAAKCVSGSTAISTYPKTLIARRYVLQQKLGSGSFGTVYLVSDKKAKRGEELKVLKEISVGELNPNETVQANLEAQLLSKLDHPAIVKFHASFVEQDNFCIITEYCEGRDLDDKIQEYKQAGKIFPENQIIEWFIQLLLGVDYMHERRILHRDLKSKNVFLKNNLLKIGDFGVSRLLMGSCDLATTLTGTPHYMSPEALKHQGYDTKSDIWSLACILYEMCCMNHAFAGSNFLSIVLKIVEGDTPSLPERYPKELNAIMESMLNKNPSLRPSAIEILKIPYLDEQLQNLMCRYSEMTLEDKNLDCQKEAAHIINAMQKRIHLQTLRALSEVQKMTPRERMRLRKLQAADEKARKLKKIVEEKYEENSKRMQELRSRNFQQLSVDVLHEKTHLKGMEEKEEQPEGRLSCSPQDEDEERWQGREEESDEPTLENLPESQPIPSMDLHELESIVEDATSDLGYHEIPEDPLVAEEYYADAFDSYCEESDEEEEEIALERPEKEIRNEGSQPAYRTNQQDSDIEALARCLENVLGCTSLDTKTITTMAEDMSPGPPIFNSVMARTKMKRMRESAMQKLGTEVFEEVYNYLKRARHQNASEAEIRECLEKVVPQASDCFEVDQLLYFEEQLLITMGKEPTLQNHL

T1 sequence (P35916 25-1363): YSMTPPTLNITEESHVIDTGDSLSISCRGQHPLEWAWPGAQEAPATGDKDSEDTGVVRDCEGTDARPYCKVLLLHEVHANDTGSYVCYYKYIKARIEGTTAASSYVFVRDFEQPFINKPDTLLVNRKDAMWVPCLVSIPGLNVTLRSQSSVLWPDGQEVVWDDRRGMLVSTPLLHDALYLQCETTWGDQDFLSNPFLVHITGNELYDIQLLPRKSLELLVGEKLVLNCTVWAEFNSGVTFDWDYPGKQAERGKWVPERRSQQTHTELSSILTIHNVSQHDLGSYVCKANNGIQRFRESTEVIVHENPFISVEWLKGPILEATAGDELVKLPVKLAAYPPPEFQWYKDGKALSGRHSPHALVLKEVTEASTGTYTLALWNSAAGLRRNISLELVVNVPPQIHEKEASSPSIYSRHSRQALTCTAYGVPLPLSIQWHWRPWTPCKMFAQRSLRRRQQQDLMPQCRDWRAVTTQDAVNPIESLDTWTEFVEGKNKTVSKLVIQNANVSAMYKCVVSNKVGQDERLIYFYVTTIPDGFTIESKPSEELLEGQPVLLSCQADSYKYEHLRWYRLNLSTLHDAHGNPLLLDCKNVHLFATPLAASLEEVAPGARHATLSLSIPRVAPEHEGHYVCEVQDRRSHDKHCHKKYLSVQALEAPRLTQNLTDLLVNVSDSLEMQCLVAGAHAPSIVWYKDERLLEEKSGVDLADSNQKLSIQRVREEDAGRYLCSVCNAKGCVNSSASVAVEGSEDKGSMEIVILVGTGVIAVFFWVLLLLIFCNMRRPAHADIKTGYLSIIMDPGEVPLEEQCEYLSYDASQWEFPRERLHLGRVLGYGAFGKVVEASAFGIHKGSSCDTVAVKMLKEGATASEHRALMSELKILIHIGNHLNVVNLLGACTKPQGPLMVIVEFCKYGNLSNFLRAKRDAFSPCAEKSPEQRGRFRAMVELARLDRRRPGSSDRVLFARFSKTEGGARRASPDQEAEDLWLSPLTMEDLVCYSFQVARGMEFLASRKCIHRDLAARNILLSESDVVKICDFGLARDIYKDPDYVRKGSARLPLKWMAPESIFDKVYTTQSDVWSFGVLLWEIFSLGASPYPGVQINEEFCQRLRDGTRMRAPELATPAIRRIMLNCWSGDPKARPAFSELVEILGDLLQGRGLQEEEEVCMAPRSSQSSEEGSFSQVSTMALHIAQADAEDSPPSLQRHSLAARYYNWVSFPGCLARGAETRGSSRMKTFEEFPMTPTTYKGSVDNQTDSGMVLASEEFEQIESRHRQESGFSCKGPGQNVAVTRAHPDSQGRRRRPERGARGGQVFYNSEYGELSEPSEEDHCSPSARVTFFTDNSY

For `Clc1cc(NCC2CC2)c2ncc(-c3ccc4[nH]ncc4c3)n2n1` [compound 2, 6-Chloro-N-(cyclopropylmethyl)-3-(1H-indazol-5-yl)imidazo[1,2-b]pyridazin-8-amine], which remaining binding at 1 µM (FLT4) is on record?
Its remaining binding at 1 µM is 95%.

What about the remaining binding at 1 µM (p38-delta) of the same molecule?
The remaining binding at 1 µM was 89%.

What about the remaining binding at 1 µM (IKK-epsilon) of the same molecule?
The remaining binding at 1 µM was 94%.

What about the remaining binding at 1 µM (CDK5) of the same molecule?
Its remaining binding at 1 µM is 100%.

And the remaining binding at 1 µM (MET(M1250T))?
The remaining binding at 1 µM was 89%.

And the remaining binding at 1 µM (CSNK1A1)?
Its remaining binding at 1 µM is 100%.

And the remaining binding at 1 µM (PIK3CA(H1047L))?
Its remaining binding at 1 µM is 95%.

What about the remaining binding at 1 µM (TNK1) of the same molecule?
The remaining binding at 1 µM was 69%.

What about the remaining binding at 1 µM (NEK11) of the same molecule?
Its remaining binding at 1 µM is 88%.

For `O=C(CN1CCOCC1)N[C@H]1CC[C@H](Nc2cc(Cl)nn3c(-c4ccc5[nH]ncc5c4)cnc23)CC1` [compound 26], which remaining binding at 1 µM (FLT4) is on record?
Its remaining binding at 1 µM is 83%.

What about the remaining binding at 1 µM (p38-delta) of the same molecule?
The remaining binding at 1 µM was 60%.

And the remaining binding at 1 µM (IKK-epsilon)?
The remaining binding at 1 µM was 100%.

And the remaining binding at 1 µM (CDK5)?
Its remaining binding at 1 µM is 92%.

What about the remaining binding at 1 µM (MET(M1250T)) of the same molecule?
Its remaining binding at 1 µM is 82%.

And the remaining binding at 1 µM (CSNK1A1)?
Its remaining binding at 1 µM is 58%.

And the remaining binding at 1 µM (PIK3CA(H1047L))?
The remaining binding at 1 µM was 98%.

What about the remaining binding at 1 µM (TNK1) of the same molecule?
The remaining binding at 1 µM was 100%.

And the remaining binding at 1 µM (NEK11)?
The remaining binding at 1 µM was 100%.

Which results are given for `CN1CCC(CNc2cc(Cl)nn3c(-c4cc5nc(Nc6ccccc6)[nH]c5cc4F)cnc23)CC1` [compound 31, 6-Chloro-3-(6-fluoro-2-(phenylamino)-1H-benzo[d]imidazol-5-yl)-N-((1-methylpiperidin-4-yl)methyl)imidazo[1,2-b]pyridazin-8-amine]?
remaining binding at 1 µM (FLT4): 100%; remaining binding at 1 µM (p38-delta): 72%; remaining binding at 1 µM (IKK-epsilon): 78%; remaining binding at 1 µM (CDK5): 99%; remaining binding at 1 µM (MET(M1250T)): 98%; remaining binding at 1 µM (CSNK1A1): 97%; remaining binding at 1 µM (PIK3CA(H1047L)): 70%; remaining binding at 1 µM (TNK1): 100%; remaining binding at 1 µM (NEK11): 92%
